Results from patent publication US20220160608A1, “PEPTIDE FOR REDUCING HAIR LOSS AND PROMOTING HAIR GROWTH, AND COSMETIC COMPOSITION AND PHARMACEUTICAL COMPOSITION COMPRISING SAME” (INCOSPHARM CORPORATION, priority 2019, published 2022).

Tests used:
[1] = tested on: p21 (cyclin-dependent kinase inhibitor 1a, Cdkn1a); details: HFDPCs, Western blot, compared to the control group
Procedure: Specifically, human follicular dermal papilla cells (HFDPCs) were uniformly plated with western blot experimental method at the number of 1×10^5 cells in a 6-well plate and cultured in an incubator in DMEM (Dulbecco's Modified Eagle Media, Gibco BRL) for 24 hours at 37° C. under 5% CO2 conditions. The peptides of SEQ ID NO: 5 and SEQ ID NO: 10 of the present invention were dissolved in water at a concentration of 10 mM to obtain a concentrate, which was diluted with a medium to an optimal concentration of 10 or 40 μM, respectively. Thereafter, 1 ml of each dilution solution was added in each well containing 1 ml of medium, and incubated for 48 hours. After the culture was completed, the medium was removed and the cells were disrupted with SDS sample buffer, followed by separating each protein on SDS-PAGE gel electrophoresis, transferring to a polyvinylidene fluoride (PVDF) membrane, and then removing non-specific binding using a blocking buffer.
In order to analyze whether p21 may be inhibited by treatment with peptides of SEQ ID NO: 5 and SEQ ID NO: 10, Western blot for an expression of p21 protein was performed.
After transferring to a PVDF membrane (polyvinylidene fluoride), non-specific binding was eliminated using a blocking buffer.

[2] = tested on: growth hormones VEGF, IGF-I, FGF10; test: Western blot for expression of hair-related growth hormone proteins in HFDPCs; assay type: cell-based, human; details: 10 or 40 μM respectively, 48 hours
Procedure: Specifically, human follicular dermal papilla cells (HFDPCs) were uniformly plated with western blot experimental method at the number of 1×10^5 cells in a 6-well plate and cultured in an incubator in DMEM (Dulbecco's Modified Eagle Media, Gibco BRL) for 24 hours at 37° C. under 5% CO2 conditions. […] Thereafter, 1 ml of each dilution solution was added in each well containing 1 ml of medium, and incubated for 48 hours. After the culture was completed, the medium was removed and the cells were disrupted with SDS sample buffer, followed by separating each protein on SDS-PAGE gel electrophoresis, transferring to a polyvinylidene fluoride (PVDF) membrane, and then removing non-specific binding using a blocking buffer.

human hair follicles = details: SEQ ID NO: 5 100 μM, SEQ ID NO: 10 16.6 μM; 7 or 10 days culture; compared to IGF-1 (10 ng/ml) or Minoxidil (10 μM) positive control
Procedure: After separating the surrounding tissues, the hair follicles isolated from the human scalp tissues were stored in Earle's balanced salts solution (EBSS; SigmaAldrich). The hair follicles in anagen phase were carefully separated under a microscope and then used in the experiment. The isolated hair follicles were cultured in Williams medium E (Gibco, Grand Island, N.Y., USA) at 37° C., 5% CO2 and 95% air with an addition of 2 mM L-glutamine (Gibco, NY, USA), 10 μg/ml insulin (SigmaAldrich), 10 ng/ml hydrocortisone (SigmaAldrich), 100 Unit/ml penicillin and 100 μg/ml streptomycin. […] At this time, as a positive control group, Minoxidil (10 μM) or IGF-1 (10 ng/ml) was treated.

FGF1 and FGF7 = test: RT-PCR for FGF1 and FGF7 gene expression in human dermal papilla cells; assay type: cell-based; details: 10 or 40 μM
From the text: (§1) After completion of the culture, the cells were disrupted with Trizol (Ambion), total mRNA was collected with chloroform/isopropanol, and cDNA was synthesized with reverse transcriptase.

MMP-2 and ALP = test: RT-PCR for MMP-2 and ALP gene expression in human dermal papilla cells; assay type: cell-based; details: compared to the control group
Procedure: as §1
RT-PCR (Thermal Cycler, Bio-rad) was performed using primers specific for MMP-2 and ALP, and the amplified product was analyzed by agarose gel electrophoresis, and the results are shown in (a) of FIG. 6.

[3] = tested on: Wnt/β-catenin signaling pathway inhibited by DKK-1; test: Inhibition of DKK-1 activity: reactivation of Wnt/β-catenin signaling inhibited by recombinant DKK-1 (Western blot, HFDPCs); details: for recovery (increase) of expression level of non-phospho (active) β-catenin: peptide treated simultaneously with recombinant DKK-1
Procedure: Specifically, human follicular dermal papilla cells (HFDPCs) were uniformly plated at the number of 5×10^4 cells in a 12-well plate and cultured in an incubator in DMEM (Dulbecco's Modified Eagle Media, Gibco BRL) for 24 hours at 37° C. under 5% CO2 conditions. After culturing, each well was treated with the recombinant protein DKK-1 to inhibit the Wnt/β-catenin signaling pathway, and further treated with the peptides of SEQ ID NO: 5 and SEQ ID NO: 10 of the present invention at appropriate concentrations, followed by culturing for a certain period of time.
After the culture was completed, the medium was removed, the cells were disrupted with SDS sample buffer. Each protein was separated by SDS-PAGE gel electrophoresis and transferred to a PVDF membrane (polyvinylidene fluoride), and then non-specific binding was eliminated using a blocking buffer.

[4] = tested on: Wnt/β-catenin signaling pathway; details: HFDPCs; for expression of p-GSK3β protein / expression of β-catenin protein: Western blot, compared to control group not treated with the peptide; for expression of active β-catenin protein, concentration screening: all concentrations from 0.1 μM to 100 μM (SEQ ID NO: 5) or 50 μM (SEQ ID NO: 10), effect not concentration-dependent
Procedure: Human follicular dermal papilla cells (HFDPCs) were uniformly plated at the number of 1×10^5 or 5×10^4 cells in a 6-well plate and cultured in an incubator in DMEM (Dulbecco's Modified Eagle Media, Gibco BRL) for 24 hours at 37° C. under 5% CO2 conditions. […] After adding 1 ml of each dilution to each well containing 1 ml of the medium the cells were incubated for a certain period of time. After the culture was completed, the medium was removed, the cells were disrupted with SDS sample buffer. Each protein was separated by SDS-PAGE gel electrophoresis and transferred to a polyvinylidene fluoride (PVDF) membrane, and then non-specific binding was eliminated using a blocking buffer.

LRP6 = LRP6 (human, UniProt O75581 20-1613); test: cell-based or functional assay
LRP5 = LRP5 (human, UniProt O75197 32-1615); test: cell-based or functional assay
LRP5, sequence (O75197 32-1615): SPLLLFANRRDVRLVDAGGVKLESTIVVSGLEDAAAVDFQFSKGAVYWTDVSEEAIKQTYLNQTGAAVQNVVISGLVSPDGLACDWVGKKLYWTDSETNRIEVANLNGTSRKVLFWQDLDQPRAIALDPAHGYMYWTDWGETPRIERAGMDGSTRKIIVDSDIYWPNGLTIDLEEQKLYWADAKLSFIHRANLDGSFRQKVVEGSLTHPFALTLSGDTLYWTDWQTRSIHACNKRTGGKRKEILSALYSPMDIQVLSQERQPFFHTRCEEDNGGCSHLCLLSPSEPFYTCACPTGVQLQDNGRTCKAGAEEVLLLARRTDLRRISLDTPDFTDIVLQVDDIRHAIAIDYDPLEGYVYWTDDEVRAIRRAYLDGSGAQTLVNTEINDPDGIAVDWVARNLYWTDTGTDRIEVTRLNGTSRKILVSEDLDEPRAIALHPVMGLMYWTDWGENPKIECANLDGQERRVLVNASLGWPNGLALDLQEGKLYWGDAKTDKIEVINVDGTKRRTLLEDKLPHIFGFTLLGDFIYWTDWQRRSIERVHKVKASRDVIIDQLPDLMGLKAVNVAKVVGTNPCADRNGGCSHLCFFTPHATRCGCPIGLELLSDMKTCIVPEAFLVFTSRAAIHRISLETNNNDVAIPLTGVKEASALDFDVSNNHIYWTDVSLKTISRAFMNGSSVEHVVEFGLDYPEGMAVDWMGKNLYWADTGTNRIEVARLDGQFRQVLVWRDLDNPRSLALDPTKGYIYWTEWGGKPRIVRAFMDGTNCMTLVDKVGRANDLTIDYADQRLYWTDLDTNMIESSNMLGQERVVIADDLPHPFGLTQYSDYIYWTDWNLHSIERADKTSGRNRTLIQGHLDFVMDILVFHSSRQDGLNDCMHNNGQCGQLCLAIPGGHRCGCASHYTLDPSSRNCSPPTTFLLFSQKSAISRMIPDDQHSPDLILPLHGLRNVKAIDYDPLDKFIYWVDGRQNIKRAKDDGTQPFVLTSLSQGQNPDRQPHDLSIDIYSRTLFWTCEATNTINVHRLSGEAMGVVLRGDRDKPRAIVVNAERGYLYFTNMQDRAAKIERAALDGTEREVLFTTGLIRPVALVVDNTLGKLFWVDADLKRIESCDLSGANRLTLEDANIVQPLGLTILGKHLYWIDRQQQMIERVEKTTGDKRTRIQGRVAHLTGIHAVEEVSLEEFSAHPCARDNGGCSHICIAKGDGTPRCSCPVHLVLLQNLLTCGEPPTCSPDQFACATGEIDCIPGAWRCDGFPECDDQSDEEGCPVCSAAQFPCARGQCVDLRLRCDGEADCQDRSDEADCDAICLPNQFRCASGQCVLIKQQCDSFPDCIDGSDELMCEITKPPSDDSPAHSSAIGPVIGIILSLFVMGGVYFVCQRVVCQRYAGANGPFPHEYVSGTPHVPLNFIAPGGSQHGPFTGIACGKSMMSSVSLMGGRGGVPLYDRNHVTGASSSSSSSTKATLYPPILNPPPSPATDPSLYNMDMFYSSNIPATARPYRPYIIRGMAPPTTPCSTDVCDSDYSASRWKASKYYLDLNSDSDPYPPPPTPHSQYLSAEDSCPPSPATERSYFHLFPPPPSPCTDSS

LRP6, sequence (O75581 20-1613): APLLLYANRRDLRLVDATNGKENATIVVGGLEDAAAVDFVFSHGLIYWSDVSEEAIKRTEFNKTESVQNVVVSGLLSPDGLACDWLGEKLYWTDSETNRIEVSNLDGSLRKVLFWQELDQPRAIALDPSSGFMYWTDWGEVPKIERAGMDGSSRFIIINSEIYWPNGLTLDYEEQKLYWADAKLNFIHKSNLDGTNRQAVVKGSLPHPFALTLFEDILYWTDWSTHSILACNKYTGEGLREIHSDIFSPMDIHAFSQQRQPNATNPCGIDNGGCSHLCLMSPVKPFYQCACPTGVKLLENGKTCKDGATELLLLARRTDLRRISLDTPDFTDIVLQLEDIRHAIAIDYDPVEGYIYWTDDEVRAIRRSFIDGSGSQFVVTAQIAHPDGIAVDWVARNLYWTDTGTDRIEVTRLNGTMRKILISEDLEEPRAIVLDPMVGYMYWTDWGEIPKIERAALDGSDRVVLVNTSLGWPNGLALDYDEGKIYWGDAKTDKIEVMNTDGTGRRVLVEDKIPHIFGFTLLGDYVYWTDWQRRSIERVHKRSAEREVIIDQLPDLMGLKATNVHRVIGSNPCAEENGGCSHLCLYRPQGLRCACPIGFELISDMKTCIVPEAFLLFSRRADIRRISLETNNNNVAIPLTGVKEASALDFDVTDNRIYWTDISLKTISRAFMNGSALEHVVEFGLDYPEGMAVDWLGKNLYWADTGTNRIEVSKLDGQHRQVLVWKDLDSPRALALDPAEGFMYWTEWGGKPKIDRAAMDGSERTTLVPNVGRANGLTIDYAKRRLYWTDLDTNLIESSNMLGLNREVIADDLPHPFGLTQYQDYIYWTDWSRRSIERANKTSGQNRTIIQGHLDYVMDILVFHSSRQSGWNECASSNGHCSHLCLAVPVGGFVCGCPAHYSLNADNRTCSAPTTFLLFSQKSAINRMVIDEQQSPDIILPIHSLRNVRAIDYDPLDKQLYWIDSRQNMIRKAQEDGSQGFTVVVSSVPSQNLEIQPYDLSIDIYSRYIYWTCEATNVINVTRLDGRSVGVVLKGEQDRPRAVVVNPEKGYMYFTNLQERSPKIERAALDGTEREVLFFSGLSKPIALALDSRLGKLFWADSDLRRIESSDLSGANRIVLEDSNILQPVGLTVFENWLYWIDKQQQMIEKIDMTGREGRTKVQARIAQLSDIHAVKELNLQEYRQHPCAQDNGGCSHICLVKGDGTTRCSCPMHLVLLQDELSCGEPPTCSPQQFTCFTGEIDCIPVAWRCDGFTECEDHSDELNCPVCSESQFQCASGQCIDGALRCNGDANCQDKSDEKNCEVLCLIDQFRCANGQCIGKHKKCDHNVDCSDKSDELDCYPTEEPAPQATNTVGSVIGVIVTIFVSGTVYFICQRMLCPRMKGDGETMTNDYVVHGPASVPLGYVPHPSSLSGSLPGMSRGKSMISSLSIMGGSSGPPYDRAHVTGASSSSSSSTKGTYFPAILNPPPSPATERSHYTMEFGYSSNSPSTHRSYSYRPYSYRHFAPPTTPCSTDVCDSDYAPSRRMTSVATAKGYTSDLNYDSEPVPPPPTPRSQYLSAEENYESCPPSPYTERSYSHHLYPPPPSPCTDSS

In the case of “serine-cysteine-arginine-isoleucine-glutamine [SEQ ID NO: 5]”, the p21 protein expression [1] is reported as “significantly reduced”, the “expression of FGF10 protein” value [2] is reported as “increased” and the “expression of IGF-I protein” value [2] is reported as “increased”. For the same molecule, the “expression of VEGF protein” value [2] was “increased”, the “hair shaft growth (length of hair shaft)” value (human hair follicles) was “superior hair shaft growth” and the “expression of FGF1 gene” value (FGF1 and FGF7) was “increased”. The “expression of FGF7 gene” value (FGF1 and FGF7) was “increased”, the “gene expression of ALP” value (MMP-2 and ALP) was “increased” and the “gene expression of MMP-2” value (MMP-2 and ALP) was “increased”. The “recovery (increase) of expression level of non-phospho (active) β-catenin” value [3] was “about 10%”, the “expression of p-GSK3β protein” value [4] was “significantly increased” and the “expression of β-catenin protein” value [4] was “significantly increased”. The “expression of active β-catenin protein, concentration screening” value [4] was “increased”.

“recombinant protein DKK-1 (Dickkopf-1) (from UniProt O94907 32-266) (ligand)” gave an expression level of non-phospho(active) β-catenin in HFDPCs (western blot), decrease against untreated control (LRP6) of 24% and an expression level of non-phospho(active) β-catenin in HFDPCs (western blot), decrease against untreated control (LRP5) of 24%.

For “arginine-isoleucine-proline [SEQ ID NO: 10]”, the p21 protein expression [1] was “significantly reduced”, the “expression of FGF10 protein” value [2] was “increased” and the “expression of IGF-I protein” value [2] was “increased”. The “expression of VEGF protein” value [2] was “increased”, the “hair shaft growth (length of hair shaft)” value (human hair follicles) was “superior hair shaft growth” and the “expression of FGF1 gene” value (FGF1 and FGF7) was “increased”. For the same molecule, the “expression of FGF7 gene” value (FGF1 and FGF7) was “increased”, the “gene expression of ALP” value (MMP-2 and ALP) was “increased” and the “gene expression of MMP-2” value (MMP-2 and ALP) was “increased”. For the same molecule, the “recovery (increase) of expression level of non-phospho (active) β-catenin” value [3] was about 31%, the “expression of p-GSK3β protein” value [4] was “significantly increased” and the “expression of β-catenin protein” value [4] was “significantly increased”. For the same molecule, the “expression of active β-catenin protein, concentration screening” value [4] was “increased”.

B1: peptide of SEQ ID NO: 10 (arginine-isoleucine-proline, RIP) (peptide)
peptide: RIP
With B1 the “expression level of non-phospho (active) β-catenin in HFDPCs treated with recombinant DKK-1 (western blot), recovery” value (LRP6) was about 31% and the “expression level of non-phospho (active) β-catenin in HFDPCs treated with recombinant DKK-1 (western blot), recovery” value (LRP5) was about 31%.

B2: DKK-1: recombinant protein, potent antagonist of the Wnt/β-catenin signaling pathway, ligand of LRP5/6 (protein)
chain: TLNSVLNSNAIKNLPPPLGGAAGHPGSAVSAAPGILYPGGNKYQTIDNYQPYPCAEDEECGTDEYCASPTRGGDAGVQICLACRKRRKRCMRHAMCCPGNYCKNGICVSSDQNHFRGEIEETITESFGNDHSTLDGYSRRTTLSSKMYHTKGQEGSVCLRSSDCASGLCCARHFWSKICKPVLKEGQVCTKHRRKGSHGLEIFQRCYCGEGLSCRIQKDHHQASNSSRLHTCQRH
B2 was tested, and the “decrease of expression level of non-phospho(active) β-catenin” value ([3]; control group treated with recombinant protein DKK-1) was “about 24%”.

B3: peptide of SEQ ID NO: 5 (serine-cysteine-arginine-isoleucine-glutamine, SCRIQ) (peptide)
peptide: SCRIQ
In the case of B3, the “expression level of non-phospho (active) β-catenin in HFDPCs treated with recombinant DKK-1 (western blot), recovery” value (LRP6) is reported as about 10% and the “expression level of non-phospho (active) β-catenin in HFDPCs treated with recombinant DKK-1 (western blot), recovery” value (LRP5) is reported as about 10%.
